Like-named read-outs stand apart in the source and are kept apart here.
How the values were obtained:
Type in all cases: in vivo
corn (Zea mays) = experiment: General postemergence herbicidal activity, corn; details: post-emergence, 336 h, read-out: ZEAMX % Visual Injury; for plant injury at 140 g/ha: 140 g ai/ha; for plant injury at 280 g/ha: 280 g ai/ha; for plant injury at 35 g/ha: 35 g ai/ha
Description: (§1) Seeds or nutlets of the desired test plant species were planted in Sun Gro MetroMix® 360 planting mixture, which typically has a pH of 6.0 to 6.8 and an organic matter content of about 30 percent, in plastic pots with a surface area of 64 square centimeters (cm^2). When required to ensure good germination and healthy plants, a fungicide treatment and/or other chemical or physical treatment was applied. The plants were grown for 7-21 days (d) in a greenhouse with an approximate 15-hour (h) photoperiod which was maintained at about 23-29° C. during the day and 22-28° C. during the night. Nutrients and water were added on a regular basis and supplemental lighting was provided with overhead metal halide 1000-Watt lamps as necessary. The plants were employed for testing when they reached the first or second true leaf stage.
(§2) A weighed amount, determined by the highest rate to be tested, of each test compound was dissolved in 4 mL of a 97:3 volume per volume (v/v) mixture of acetone and dimethyl sulfoxide (DMSO) to obtain concentrated stock solutions. […] The concentrated stock solutions obtained were diluted with 20 mL of an aqueous mixture containing acetone, water, isopropyl alcohol, DMSO, Atplus 411F crop oil concentrate, and Triton X-155 surfactant in a 48.5:39:10:1.5:1.0:0.02 v/v ratio to obtain spray solutions containing the highest application rates. Additional application rates were obtained by serial dilution of 12 mL of the high rate solution into a solution containing 2 mL of 97:3 v/v mixture of acetone and DMSO and 10 mL of an aqueous mixture containing acetone, water, isopropyl alcohol, DMSO, Atplus 411F crop oil concentrate, and Triton X-155 surfactant in a 48.5:39:10:1.5:1.0:0.02 v/v ratio to obtain ½×, ¼×, ⅛× and 1/16× rates of the high rate. Compound requirements are based upon a 12 mL application volume at a rate of 187 liters per hectare (L/ha). Formulated compounds were applied to the plant material with an overhead Mandel track sprayer equipped with 8002E nozzles calibrated to deliver 187 L/ha over an application area of 0.503 square meters (m^2) at a spray height of 18 inches (43 cm) above the average plant canopy height. Control plants were sprayed in the same manner with the solvent blank.
(§3) The treated plants and control plants were placed in a greenhouse as described above and watered by sub-irrigation to prevent wash-off of the test compounds. After 14 d, the condition of the test plants as compared with that of the untreated plants was determined visually and scored on a scale of 0 to 100 percent where 0 corresponds to no injury and 100 corresponds to complete kill.

[1] = system: lambsquarters (Chenopodium album); experiment: General postemergence herbicidal activity, lambsquarters; details: post-emergence, 336 h, read-out: CHEAL % Visual Injury; for pest or weed control at 140 g/ha: 140 g ai/ha; for pest or weed control at 280 g/ha: 280 g ai/ha; for pest or weed control at 35 g/ha: 35 g ai/ha
Description: as §1, §2, §3

[2] = system: wild buckwheat (Polygonum convululus); experiment: General postemergence herbicidal activity, wild buckwheat; details: post-emergence, 336 h, read-out: POLCO % Visual Injury; for pest or weed control at 140 g/ha: 140 g ai/ha; for pest or weed control at 280 g/ha: 280 g ai/ha; for pest or weed control at 35 g/ha: 35 g ai/ha
Description: as §1, §2, §3

[3] = system: velvetleaf (Abutilon theophrasti); experiment: General postemergence herbicidal activity, velvetleaf; details: post-emergence, 336 h, read-out: ABUTH % Visual Injury; for pest or weed control at 140 g/ha: 140 g ai/ha; for pest or weed control at 280 g/ha: 280 g ai/ha; for pest or weed control at 35 g/ha: 35 g ai/ha
Description: as §1, §2, §3

[4] = postemergence, after 14 d, 0 = no injury, 100 = complete kill
[5] = 70 g ai/ha, postemergence, after 14 d, 0 = no injury, 100 = complete kill
[6] = 17.5 g ai/ha, postemergence, after 14 d, 0 = no injury, 100 = complete kill

## COc1c(Cl)ccc(-c2cc(N)c(Cl)c(C(=O)N3CCCO3)n2)c1F [Compound 40, (4-Amino-3-chloro-6-(4-chloro-2-fluoro-3-methoxyphenyl)pyridin-2-yl)(isoxazolidin-2-yl)methanone]
Corn (Zea mays); [4]
  plant injury at 140 g/ha: 20%
[1]; [4]
  pest or weed control at 140 g/ha: 100%
[2]; [4]
  pest or weed control at 140 g/ha: 100%
[3]; [4]
  pest or weed control at 140 g/ha: 95%

## COc1c(Cl)ccc(-c2cc(N)c(Cl)c(C(=O)NOCc3ccco3)n2)c1F [Compound 42, 4-Amino-3-chloro-6-(4-chloro-2-fluoro-3-methoxyphenyl)-N-(furan-2-yl-methoxy)picolinamide]
Corn (Zea mays); [5]
  plant injury at 70 g/ha: 15%
[1]; [5]
  pest or weed control at 70 g/ha: 100%
[2]; [5]
  pest or weed control at 70 g/ha: 100%
[3]; [5]
  pest or weed control at 70 g/ha: 100%

## COc1c(Cl)ccc(-c2cc(N)c(Cl)c(C(=O)NOCc3ccoc3)n2)c1F [Compound 43, 4-Amino-3-chloro-6-(4-chloro-2-fluoro-3-methoxyphenyl)-N-(furan-3-yl-methoxy)picolinamide]
Corn (Zea mays); [4]
  plant injury at 140 g/ha: 30%
[1]; [4]
  pest or weed control at 140 g/ha: 100%
[2]; [4]
  pest or weed control at 140 g/ha: 100%
[3]; [4]
  pest or weed control at 140 g/ha: 95%

## COc1c(Cl)ccc(-c2cc(N)c(Cl)c(C(=O)NOCC3=CCCCC3)n2)c1F [Compound 44, 4-Amino-3-chloro-6-(4-chloro-2-fluoro-3-methoxyphenyl)-N-(cyclohexenyl-methoxy)picolinamide]
Corn (Zea mays); [4]
  plant injury at 140 g/ha: 5%
[1]; [4]
  pest or weed control at 140 g/ha: 98%
[2]; [4]
  pest or weed control at 140 g/ha: 100%
[3]; [4]
  pest or weed control at 140 g/ha: 98%

## CC/C=C/CONC(=O)c1nc(-c2ccc(Cl)c(OC)c2F)cc(N)c1Cl [Compound 45, (E)-4-Amino-3-chloro-6-(4-chloro-2-fluoro-3-methoxyphenyl)-N-(2-pentenyl-oxy)picolinamide]
Corn (Zea mays); [4]
  plant injury at 140 g/ha: 30%
[1]; [4]
  pest or weed control at 140 g/ha: 100%
[2]; [4]
  pest or weed control at 140 g/ha: 100%
[3]; [4]
  pest or weed control at 140 g/ha: 100%

## CCCCONC(=O)c1nc(-c2ccc(Cl)c(OC)c2F)cc(N)c1Cl [Compound 46, 4-Amino-N-butoxy-3-chloro-6-(4-chloro-2-fluoro-3-methoxyphenyl)picolinamide]
Corn (Zea mays); [5]
  plant injury at 70 g/ha: 25%
[1]; [5]
  pest or weed control at 70 g/ha: 100%
[2]; [5]
  pest or weed control at 70 g/ha: 100%
[3]; [5]
  pest or weed control at 70 g/ha: 100%

## COCCONC(=O)c1nc(-c2ccc(Cl)c(OC)c2F)cc(N)c1Cl [Compound 49, 4-Amino-3-chloro-6-(4-chloro-2-fluoro-3-methoxyphenyl)-N-(2-methoxy-ethoxy)picolinamide]
Corn (Zea mays); [4]
  plant injury at 280 g/ha: 0%
[1]; [4]
  pest or weed control at 280 g/ha: 100%
[2]; [4]
  pest or weed control at 280 g/ha: 100%
[3]; [4]
  pest or weed control at 280 g/ha: 100%

## COc1c(Cl)ccc(-c2cc(N)c(Cl)c(C(=O)NOCCC#N)n2)c1F [Compound 50, 4-Amino-3-chloro-6-(4-chloro-2-fluoro-3-methoxyphenyl)-N-(2-cyanoethoxy)picolinamide]
Corn (Zea mays); [4]
  plant injury at 280 g/ha: 10%
[1]; [4]
  pest or weed control at 280 g/ha: 100%
[2]; [4]
  pest or weed control at 280 g/ha: 90%
[3]; [4]
  pest or weed control at 280 g/ha: 100%

## COCCOCONC(=O)c1nc(-c2ccc(Cl)c(OC)c2F)cc(N)c1Cl [Compound 51, 4-Amino-3-chloro-6-(4-chloro-2-fluoro-3-methoxyphenyl)-N-((2-methoxyethoxy)-methoxy)picolinamide]
Corn (Zea mays); [4]
  plant injury at 35 g/ha: 35%
[1]; [4]
  pest or weed control at 35 g/ha: 100%
[2]; [4]
  pest or weed control at 35 g/ha: 100%
[3]; [4]
  pest or weed control at 35 g/ha: 100%

## COc1c(Cl)ccc(-c2cc(N)c(Cl)c(C(=O)N3CC=CCO3)n2)c1F [Compound 52, (4-Amino-3-chloro-6-(4-chloro-2-fluoro-3-methoxyphenyl)pyridin-2-yl)(3,6-dihydro-2H-1,2-oxazin-2-yl)methanone]
Corn (Zea mays); [4]
  plant injury at 35 g/ha: 20%
[1]; [4]
  pest or weed control at 35 g/ha: 90%
[2]; [4]
  pest or weed control at 35 g/ha: 100%
[3]; [4]
  pest or weed control at 35 g/ha: 100%

## COc1c(Cl)ccc(-c2cc(N)c(Cl)c(C(=O)NO)n2)c1F [Compound 57, 4-amino-3-chloro-6-(4-chloro-2-fluoro-3-methoxyphenyl)-N-hydroxypicolinamide]
Corn (Zea mays); [6]
  plant injury at 17.5 g/ha: 0%
[1]; [6]
  pest or weed control at 17.5 g/ha: 95%
[2]; [6]
  pest or weed control at 17.5 g/ha: 95%
[3]; [6]
  pest or weed control at 17.5 g/ha: 90%

## COc1c(N)nc(-c2ccc(Cl)c(F)c2F)nc1C(=O)NO [Compound 58, 6-Amino-2-(4-chloro-2,3-difluorophenyl)-N-hydroxy-5-methoxypyrimidine-4-carboxamide]
Corn (Zea mays); [4]
  plant injury at 280 g/ha: 0%
[1]; [4]
  pest or weed control at 280 g/ha: 100%
[2]; [4]
  pest or weed control at 280 g/ha: 100%
[3]; [4]
  pest or weed control at 280 g/ha: 90%

## C=CCONC(=O)c1nc(-c2ccc(Cl)c(OC)c2F)cc(N)c1Cl [Compound 59, sodium 2-propenyloxy(4-amino-3-chloro-6-(4-chloro-2-fluoro-3-methoxyphenyl)picolinoyl)amide]
Corn (Zea mays)
  plant injury at 70 g/ha: 10%
[1]
  pest or weed control at 70 g/ha: 95%
[2]
  pest or weed control at 70 g/ha: 85%
[3]
  pest or weed control at 70 g/ha: 100%

— US20130324412A1, “N-ALKOXYAMIDES OF 6-(SUBSTITUTED PHENYL)-4-AMINOPICOLINATES AND 2-(SUBSTITUTED PHENYL)-6-AMINO-4-PYRIMIDINECARBOXYLATES AND THEIR USE AS SELECTIVE HERBICIDES FOR CROPS” (DOW AGROSCIENCES LLC, priority 2009, published 2013)
